Where two headings read alike, the source gives them in different places. Bounds are passed on as bounds.

Experiment [1] concerns PRMT5-dependent Symmetric Di-methyl Arginine signal in HCT116 homozygous MTAP knockout cells. The experiment can be described thus: SYM11 In-Cell Western, HCT116 MTAP knockout. Conditions: HCT116 homozygous MTAP knockout cells, 4 days of treatment, SYM11/DRAQ5 ratio, read-out: In-cell-Western (SYM11) HCT116 MTAP_KO IC50. Type of experiment: cell-based. As to the method: (§1) 1. HCT116 MTAP Knockout Model
(§2) HCT116 cells were genetically engineered to knock out the function of both MTAP alleles using a CRISPR/Cas9 system and an sgRNA targeting the MTAP gene. Following Cas9/MTAP sgRNA transduction, clones were screened to confirm that each allele of the MTAP gene had been inactivated (i.e., homozygous MTAP knock out) creating an MTAP-deficient cell.
(§3) Control samples were analyzed in parallel.
Briefly, on Day 0, 2,000 HCT116 parental or HCT116 homozygous MTAP knockout cells were seeded in 96 well plates in McCoy's 5A supplemented with 10% fetal bovine serum and pen/strep and the cells were incubated overnight at 37° C. plus 5% CO2. The following day, cells were treated with DMSO vehicle control or a dose response of PRMT5 inhibitors, and incubated at 37° C. plus 5% CO^2 for four days.
After 4 days of treatment, the cells were fixed by adding 50 μl of 4% paraformaldehyde solution to each well and the cells were incubated for 20 min at room temperature. The paraformaldehyde solution was removed, 150 μl of ice-cold methanol was added and the plate was placed −20° C. for 10 minutes. The methanol was removed, 150 μl of Odyssey Blocking buffer+0.05% Tween20 was added and the plate was incubated at room temperature with shaking for one hour.
The primary SYM11 antibody solution was removed by aspiration and the wells were washed three consecutive times with phosphate buffered saline containing 0.1% Tween-20 (PBST).
The secondary antibody solution was removed by aspiration and the wells were washed three consecutive times with PB ST.
The SYM11 signal and the DRAQ5 signal were quantified using a Li-Cor Odyssey machine reading at […], respectively. The SYM11/DRAQ5 ratio was used to calculate the inhibition of Symmetric Dimethyl Arginine as percent of DMSO control.

The subject of experiment [2] is HCT116 homozygous MTAP knockout cells. The experiment can be described thus: Proliferation assay (CellTiter-Glo, 10 days of treatment), HCT116 MTAP knockout. The class given is cell-based. Conditions: read-out: Proliferation HCT116MTAP_KO IC50. As to the method: as §1, §2, §3
Briefly, on Day 0, 250 HCT116 parental or HCT116 homozygous MTAP knockout cell were seeded in 96 well plates in McCoy's 5A supplemented with 10% fetal bovine serum and pen/strep and the cells were incubated overnight at 37° C. plus 5% CO2.
The following day, cells were treated with DMSO vehicle control or a dose response of PRMT5 inhibitors and incubated at 37 C plus 5% CO2 for five days. On Day 6, the cells were trypsinized and split 1:10 into new 96-well plates with fresh medium containing the same concentration of PRMT5 inhibitor and incubated for an additional 5 days at 37° C. plus 5% CO^2.
On Day 11, the viability of the cells was measured using a CTG assay kit (CellTiter-Glo; Promega cat.no G7573) in accordance with the manufacturer's instructions. The IC50 values for each compound after 10 days of treatment were calculated using GraphPad PRISM software.
(In ATP-based viability assays light output follows the ATP content of the culture.)

For `Cc1cc2ccccc2c(C#N)c1-c1c(-c2ccc3c(=O)[nH]nc(CN)c3c2)cnn1C` [Example 12-15, 2-[4-[4-(aminomethyl)-1-oxo-2H-phthalazin-6-yl]-2-methyl-pyrazol-3-yl]-3-methyl-naphthalene-1-carbonitrile], the IC50 was determined as 189 nM in experiment [1] (Homo sapiens, HCT-116, 96 h) and 261 nM in experiment [2] (Homo sapiens, HCT-116, 240 h).
For `N#CCc1ccccc1Oc1cncc(-c2ccc3c(=O)[nH]nc(CN)c3c2)c1` [Example 4-235, 2-(2-((5-(4-(aminomethyl)-1-oxo-1,2-dihydrophthalazin-6-yl)pyridin-3-yl)oxy)phenyl)acetonitrile], in that order: more than 1000 nM and more than 10000 nM.
`COc1cc2ccccc2c(C#N)c1-c1c(-c2ccc3c(=O)[nH]nc(CN)c3c2)cnn1C` [Example 12-16, 2-[4-[4-(aminomethyl)-1-oxo-2H-phthalazin-6-yl]-2-methyl-pyrazol-3-yl]-3-methoxy-naphthalene-1-carbonitrile]: the IC50 is 0.4 nM in experiment [1]; 0.5 nM in experiment [1] (Homo sapiens, HCT-116, 96 h); 75 nM in experiment [2] (Homo sapiens, HCT-116, 240 h); 73 nM in experiment [2].
For `Cn1cc2c(C#N)c(-c3c(-c4ccc5c(=O)[nH]nc(CN)c5c4)cnn3C)ccc2n1` [Example 4-248, 5-(4-(4-(aminomethyl)-1-oxo-1,2-dihydrophthalazin-6-yl)-1-methyl-1H-pyrazol-5-yl)-2-methyl-2H-indazole-4-carbonitrile], the IC50 was more than 1000 nM in experiment [1] (Homo sapiens, HCT-116, 96 h) and 1160 nM in experiment [2] (Homo sapiens, HCT-116, 240 h).
Taken in the same sequence, the figures for `Cn1ncc(-c2ccc3c(=O)[nH]nc(CN)c3c2)c1-c1cn(-c2ccccc2)nc1C#N` [Example 4-214, 4-(4-(aminomethyl)-1-oxo-1,2-dihydrophthalazin-6-yl)-2-methyl-11-phenyl-1′H,2H-[3,4′-bipyrazole]-3′-carbonitrile] were more than 10000 nM and 4400 nM.
For `Cn1ncc(-c2ccc3c(=O)[nH]nc(CN)c3c2)c1-c1cc2ccccc2c(Cl)c1C#N` [Example 4-218, 3-(4-(4-(aminomethyl)-1-oxo-1,2-dihydrophthalazin-6-yl)-1-methyl-1H-pyrazol-5-yl)-1-chloro-2-naphthonitrile], in that order: 140 nM and 134 nM.
For `Cn1ncc(-c2ccc3c(=O)[nH]nc([C@H](N)C(F)F)c3c2)c1-c1ccc2ccccc2c1C#N` [Example 9-6, 2-[4-[4-[(1S)-1-amino-2,2-difluoro-ethyl]-1-oxo-2H-phthalazin-6-yl]-2-methyl-pyrazol-3-yl]naphthalene-1-carbonitrile], in that order: more than 1000 nM and more than 10000 nM.
Turning to `Cn1nc(F)c(-c2ccc3c(=O)[nH]nc(CN)c3c2)c1-c1ccc2ccccc2c1C#N` [Example 4-247, 2-(4-(4-(aminomethyl)-1-oxo-1,2-dihydrophthalazin-6-yl)-3-fluoro-1-methyl-1H-pyrazol-5-yl)-1-naphthonitrile], the IC50 in experiment [1] (Homo sapiens, HCT-116, 96 h) was more than 1000 nM; in experiment [2] (Homo sapiens, HCT-116, 240 h), 1810 nM.
Taken in the same sequence, the figures for `Cn1ncc(-c2ccc3c(=O)[nH]nc(CN)c3c2)c1-c1cnn(Cc2cccn(C)c2=O)c1Cl` [Example 4-236, 4-(aminomethyl)-6-(5′-chloro-2-methyl-1′-((1-methyl-2-oxo-1,2-dihydropyridin-3-yl)methyl)-1′H,2H-[3,4′-bipyrazol]-4-yl)phthalazin-1(2H)-one] were more than 1000 nM and more than 1000 nM.
For `N#Cc1c(-c2sncc2-c2ccc3c(=O)[nH]nc(CN)c3c2)ccc2ccccc12` [Example 4-228, 2-(4-(4-(aminomethyl)-1-oxo-1,2-dihydrophthalazin-6-yl)isothiazol-5-yl)-1-naphthonitrile], in that order: more than 1000 nM and more than 10000 nM.
`Cn1ncc(-c2ccc3c(=O)[nH]nc(CN)c3c2)c1-c1cn(Cc2ccccc2C#N)nc1Cl` [Example 4-232, 2-((4-(4-(aminomethyl)-1-oxo-1,2-dihydrophthalazin-6-yl)-3′-chloro-2-methyl-1′H,2H-[3,4′-bipyrazol]-1′-yl)methyl)benzonitrile]: the IC50 in experiment [1] (Homo sapiens, HCT-116, 96 h) came to 148 nM; in experiment [2] (Homo sapiens, HCT-116, 240 h) it was 4770 nM.
For `Cn1ncc(-c2ccc3c(=O)[nH]nc(CN)c3c2)c1-c1ccc2cccc(F)c2c1C#N` [Example 4-234, 2-(4-(4-(aminomethyl)-1-oxo-1,2-dihydrophthalazin-6-yl)-1-methyl-1H-pyrazol-5-yl)-8-fluoro-1-naphthonitrile], in that order: 129 nM and 206 nM.
For `Cn1ncc(-c2ccc3c(=O)[nH]nc(CN)c3c2)c1-c1sc2ncccc2c1C#N` [Example 4-244, 2-(4-(4-(aminomethyl)-1-oxo-1,2-dihydrophthalazin-6-yl)-1-methyl-1H-pyrazol-5-yl)thieno[2,3-b]pyridine-3-carbonitrile], in that order: 42 nM and 327 nM.
On to `Cn1ncc(-c2ccc3c(=O)[nH]nc(CN)c3c2)c1-c1cc2ccccn2c1C#N` [Example 4-227, 2-(4-(4-(aminomethyl)-1-oxo-1,2-dihydrophthalazin-6-yl)-1-methyl-1H-pyrazol-5-yl)indolizine-3-carbonitrile], for which the IC50 was more than 1000 nM in experiment [1] (Homo sapiens, HCT-116, 96 h) and 2370 nM in experiment [2] (Homo sapiens, HCT-116, 240 h).
Taken in the same sequence, the figures for `Cn1ncc(-c2ccc3c(=O)[nH]nc(CN)c3c2)c1-c1cn(Cc2ccccc2)nc1C#N` [Example 4-212, 4-(4-(aminomethyl)-1-oxo-1,2-dihydrophthalazin-6-yl)-1′-benzyl-2-methyl-1′H,2H-[3,4′-bipyrazole]-3′-carbonitrile] were more than 10000 nM and more than 10000 nM.
For `Cc1cc(OC2CC2)c(C#N)c(-c2c(-c3cc(Cl)c4c(=O)[nH]nc(CN)c4c3)cnn2C)c1` [Example 10-19, 2-(4-(4-(aminomethyl)-8-chloro-1-oxo-1,2-dihydrophthalazin-6-yl)-1-methyl-1H-pyrazol-5-yl)-6-cyclopropoxy-4-methylbenzonitrile], in that order: 185 nM and 312 nM.
For `CCOc1cc2ccccc2c(C#N)c1-c1c(-c2cc(OCC)c3c(=O)[nH]nc(CN)c3c2)cnn1C` [Example 13-3, 2-[4-[4-(aminomethyl)-8-ethoxy-1-oxo-2H-phthalazin-6-yl]-2-methyl-pyrazol-3-yl]-3-ethoxy-naphthalene-1-carbonitrile], in that order: 298 nM and 565 nM.
Take `Cn1ncc(-c2ccc3c(=O)[nH]nc(CN)c3c2)c1-c1ccc2c(c1C#N)OCCC2` [Example 4-226, 7-(4-(4-(aminomethyl)-1-oxo-1,2-dihydrophthalazin-6-yl)-1-methyl-1H-pyrazol-5-yl)chromane-8-carbonitrile]: the IC50 worked out at 10 nM in experiment [1] (Homo sapiens, HCT-116, 96 h) and 191 nM in experiment [2] (Homo sapiens, HCT-116, 240 h).
For `Cn1ncc(-c2ccc3c(=O)[nH]nc(CN)c3c2)c1-c1ccc2cc(F)ccc2c1C#N` [Example 4-216, 2-(4-(4-(aminomethyl)-1-oxo-1,2-dihydrophthalazin-6-yl)-1-methyl-1H-pyrazol-5-yl)-6-fluoro-1-naphthonitrile], in that order: 83 nM and 134 nM.
Taken in the same sequence, the figures for `Cc1cc(OC2CC2)c(C#N)c(-c2c(-c3ccc4c(=O)[nH]nc(CN)c4c3)cnn2C)c1` [Example 12-18, 2-(4-(4-(aminomethyl)-1-oxo-1,2-dihydrophthalazin-6-yl)-1-methyl-1H-pyrazol-5-yl)-6-cyclopropoxy-4-methylbenzonitrile] were 10 nM and 104 nM.
Taken in the same sequence, the figures for `Cc1cc(-c2cnn(C)c2-c2c(F)cc3ccccc3c2C#N)cc2c(CN)n[nH]c(=O)c12` [Example 10-15, 2-(4-(4-(aminomethyl)-8-methyl-1-oxo-1,2-dihydrophthalazin-6-yl)-1-methyl-1H-pyrazol-5-yl)-3-fluoro-1-naphthonitrile] were 4 nM and 13 nM.

Values taken from patent US11479551B2, “MTA-cooperative PRMT5 inhibitors” (Mirati Therapeutics, Inc., priority 2019, dated 2022).
